Source: patent US20220054513A1, “COMBINATION COMPOSITIONS COMPRISING A BETA-LACTAMASE INHIBITOR” (VenatoRx Pharmaceuticals, Inc., priority 2018, published 2022)

Tested on: Acinetobacter baumannii-calcoaceticus species complex clinical isolates
Test: MIC of triple combinations (Compound 1, sulbactam, meropenem or cefepime), 141 clinical isolates
Type: cell-based
Details: Cmpd 1 at 4 μg/mL in combinations
From the text: For a more comprehensive assessment of the ability of test compounds to potentiate sulbactam in triple combinations with β-lactams additional MIC assays were utilized.

## C[C@@H](O)[C@H]1C(=O)N2C(C(=O)O)=C(S[C@@H]3CN[C@H](C(=O)N(C)C)C3)[C@H](C)[C@H]12 [MEM]
Strain 993131
  MIC: 64 µg/mL
Strain 994180
  MIC: 2 µg/mL
Strain 995771
  MIC: 256 µg/mL
Strain 996612
  MIC: 32 µg/mL
Strain 996869
  MIC: >256 µg/mL
Strain 997574
  MIC: 256 µg/mL
Strain 998107
  MIC: 64 µg/mL
Strain 998532
  MIC: 256 µg/mL
Strain 998898
  MIC: 32 µg/mL
Strain 998907
  MIC: 16 µg/mL
Strain 999306
  MIC: 2 µg/mL
Strain 1001007
  MIC: 256 µg/mL
Strain 1001611
  MIC: 32 µg/mL
Strain 1002208
  MIC: 64 µg/mL
Strain 1002952
  MIC: >256 µg/mL
Strain 1002960
  MIC: >256 µg/mL
Strain 1003557
  MIC: 256 µg/mL
Strain 1003787
  MIC: >256 µg/mL
Strain 1008508
  MIC: >256 µg/mL
Strain 1008510
  MIC: 256 µg/mL
Strain 1010245
  MIC: 64 µg/mL
Strain 1010331
  MIC: 64 µg/mL
Strain 1011959
  MIC: 64 µg/mL
Strain 1013022
  MIC: 256 µg/mL
Strain 1013035
  MIC: 256 µg/mL
Strain 1013055
  MIC: 32 µg/mL
Strain 1013322
  MIC: 64 µg/mL
Strain 1014143
  MIC: 8 µg/mL
Strain 1014646
  MIC: 64 µg/mL
Strain 1014815
  MIC: 256 µg/mL
Strain 1014866
  MIC: 64 µg/mL
Strain 1014870
  MIC: 256 µg/mL
Strain 1014878
  MIC: 64 µg/mL
Strain 1018109
  MIC: 0.25 µg/mL
Strain 1018801
  MIC: 256 µg/mL
Strain 1018802
  MIC: 256 µg/mL
Strain 1018807
  MIC: 64 µg/mL
Strain 1018851
  MIC: 256 µg/mL
Strain 1019086
  MIC: 256 µg/mL
Strain 1023031
  MIC: >256 µg/mL
Strain 1023034
  MIC: 64 µg/mL
Strain 1023074
  MIC: 32 µg/mL
Strain 1023207
  MIC: 32 µg/mL
Strain 1023329
  MIC: 64 µg/mL
Strain 1024119
  MIC: 4 µg/mL
Strain 1026990
  MIC: 256 µg/mL
Strain 1026992
  MIC: 32 µg/mL
Strain 1027234
  MIC: 64 µg/mL
Strain 1027590
  MIC: 256 µg/mL
Strain 1027603
  MIC: 64 µg/mL
Strain 1027748
  MIC: 32 µg/mL
Strain 1028193
  MIC: >256 µg/mL
Strain 1029770
  MIC: >256 µg/mL
Strain 1029913
  MIC: 32 µg/mL
Strain 1030427
  MIC: 256 µg/mL
Strain 1031167
  MIC: 256 µg/mL
Strain 1031191
  MIC: 64 µg/mL
Strain 1031211
  MIC: 64 µg/mL
Strain 1031238
  MIC: 256 µg/mL
Strain 1032669
  MIC: 64 µg/mL
Strain 1032761
  MIC: 256 µg/mL
Strain 1033340
  MIC: 256 µg/mL
Strain 1033979
  MIC: 256 µg/mL
Strain 1034048
  MIC: 256 µg/mL
Strain 1034912
  MIC: 64 µg/mL
Strain 1034913
  MIC: 64 µg/mL
Strain 1034916
  MIC: 64 µg/mL
Strain 1034925
  MIC: 64 µg/mL
Strain 1034962
  MIC: 64 µg/mL
Strain 1035144
  MIC: 256 µg/mL
Strain 1035788
  MIC: 64 µg/mL
Strain 1035794
  MIC: 32 µg/mL
Strain 1035808
  MIC: 16 µg/mL
Strain 1035825
  MIC: 64 µg/mL
Strain 1036045
  MIC: 64 µg/mL
Strain 1036068
  MIC: 64 µg/mL
Strain 1036734
  MIC: 64 µg/mL
Strain 1036768
  MIC: 8 µg/mL
Strain 1036781
  MIC: >256 µg/mL
Strain 1036859
  MIC: 64 µg/mL
Strain 1036882
  MIC: 256 µg/mL
Strain 1036921
  MIC: 1 µg/mL
Strain 1037193
  MIC: >256 µg/mL
Strain 1037211
  MIC: 2 µg/mL
Strain 1037251
  MIC: 64 µg/mL
Strain 1037256
  MIC: 64 µg/mL
Strain 1037479
  MIC: 256 µg/mL
Strain 1037593
  MIC: 256 µg/mL
Strain 1037618
  MIC: 1 µg/mL
Strain 1037714
  MIC: 256 µg/mL
Strain 1037731
  MIC: 0.5 µg/mL
Strain 1037732
  MIC: 256 µg/mL
Strain 1037738
  MIC: >256 µg/mL
Strain 1037747
  MIC: 256 µg/mL
Strain 1038418
  MIC: 0.25 µg/mL
Strain 1038439
  MIC: 0.25 µg/mL
Strain 1039502
  MIC: 64 µg/mL
Strain 1039518
  MIC: 64 µg/mL
Strain 1040900
  MIC: 64 µg/mL
Strain 1040901
  MIC: 64 µg/mL
Strain 1042182
  MIC: 64 µg/mL
